[ ]: non-standard residue; d: D form. Aib = CC(C)(N)C(=O)O

One data set has as its system U251 cells. As to the kind of experiment: Quantitative peptide uptake, U251. It is filed as cell-based. The note with it: U251, TAMRA-labelled peptides 1, 2.5, 5 μM, 1 h, 37 °C, lysate fluorescence 544/590 nm, two experiments in triplicate. The procedure: (§1) U373MG and U251 cells were maintained as above and then transferred to 6-well plates and grown to 80% confluence. Cells were washed and maintained in phenol red-free DMEM and subsequently treated with TAMRA-conjugated Djeya1 analogues at final concentrations of 1 μM, 2.5 μM, and 5 μM for 1 h in culture conditions as above. Cells were washed four times, detached with 300 μL of 1% (w/v) trypsin (without phenol red) at 37 °C, collected by centrifugation, and lysed in 300 μL 0.1 M NaOH for 2 h on ice. A total of 250 μL of each sample cell lysate was transferred to a black 96-well plate and analysed using a Thermo Fischer Scientific (Loughborough, UK) Fluoroskan Ascent FL fluorescence spectrophotometer (λAbs 544 nm/λEm 590 nm).

Data set [1] concerns decapitated S. mediterranea. Put plainly: Anterior pole regeneration and eye development assay. It counts as in vivo, Schmidtea mediterranea. As to conditions: 25 μM exogenous application to decapitated S. mediterranea, monitored over 8 days. The procedure: Adult planaria, 4–6 mm in length, and selected for experimentation were starved 5 days prior to amputation. Transverse amputation of planarian heads, post-auricle and pre-pharynx, induced blastema formation in the trunk section, leading to eye regeneration and head remodeling.
Post amputation, planaria were immediately treated with exogenously added Djeya1 analogues in 35 mm diameter × 10 mm depth culture dishes (VWR International Ltd., Lutterworth, UK) to a final volume of 4 mL PAM and maintained at 20 °C. PAM, containing Djeya1 analogues, was replenished 4 days post amputation. […]

Another data set deals with U373MG cells. Put plainly: Quantitative peptide uptake, U373MG. It counts as cell-based. As to conditions: TAMRA-labelled peptides 1, 2.5, 5 μM, 1 h, 37 °C, lysate fluorescence 544/590 nm, two experiments in triplicate. As for the experimental part: as §1
Data set [2] can be described thus: Circular dichroism secondary structure analysis. It is filed as physicochemical. As to conditions: CD. As for the experimental part: Secondary structure analyses of Djeya1 peptides were performed on a Jasco J-815 CD spectrometer (Jasco Ltd., Heckmondwike, UK). Peptides (0.01 mg mL^−^1) were dissolved in either 1 × phosphate buffered saline (PBS) at pH 7.4 or in a 2,2,2-tetrafluoroethanol (TFE) and 1 × PBS mixture (50.0% v/v). All buffers were prepared using ultra-pure water (resistivity 18 MΩ cm), PBS and TFE (Scientific Laboratory Supplies Ltd., Nottingham, UK). CD experiments were also performed at peptide:lipid ratios of 1:100, whilst 1,2-dimyristoyl-sn-glycero-3-phosphatidylcholine (DMPC) and 1,2-dimyristoyl-sn-glycero-3-phosphatidylserine (DMPS) (5 mg mL^−^1) (Avanti Polar Lipids, Alabaster, AL, USA) were dissolved separately in chloroform (HPLC grade, VWR International Ltd Lutterworth, UK) and dried under N2 gas. The lipid film was rehydrated using 1 × PBS, pH 7.5 for 1 h or until the solution was no longer turbid. The solution then underwent 5 cycles of freeze thaw before the lipid/peptide samples were prepared by the addition of peptide stock solution (final concentration 0.01 mg mL^−^1). Far UV CD spectra (180 nm to 260 nm) were recorded at 20 °C using 0.5 nm intervals, a bandwidth of 1 nm, a scan speed of 50 nm min^−1 and a 10 mm path-length cell. Ten accumulations were selected to average a single spectrum. Samples without peptide were prepared for background spectral subtraction. Data, baseline-subtracted and averaged CD, were analyzed using the Dichroweb server CDSSTR and SELCON3 reference dataset 3 [23, 24, 25]. To generate percentage structure averages, these analyses were repeated four times.

The mark [3] stands for this setting: 50% (v/v) TFE/PBS pH 7.4, peptide 0.01 mg mL-1, 20 °C.
[4] abbreviates: DMPC vesicles, lipid:peptide 100 to 1, PBS, peptide 0.01 mg mL-1, 20 °C.
The mark [5] stands for this setting: DMPS vesicles, lipid:peptide 100 to 1, PBS, peptide 0.01 mg mL-1, 20 °C.
The mark [6] stands for this setting: PBS pH 7.4, peptide 0.01 mg mL-1, 20 °C, Dichroweb, analyses repeated four times.

As for “H-RKLAFRYRR[Aib]KELYNSYR-NH2 (SMILES CC(C)C[C@H](NC(=O)[C@H](CCCCN)NC(=O)[C@@H](N)CCCNC(=N)N)C(=O)N[C@@H](C)C(=O)N[C@@H](Cc1ccccc1)C(=O)N[C@@H](CCCNC(=N)N)C(=O)N[C@@H](Cc1ccc(O)cc1)C(=O)N[C@@H](CCCNC(=N)N)C(=O)N[C@@H](CCCNC(=N)N)C(=O)NC(C)(C)C(=O)N[C@@H](CCCCN)C(=O)N[C@@H](CCC(=O)O)C(=O)N[C@@H](CC(C)C)C(=O)N[C@@H](Cc1ccc(O)cc1)C(=O)N[C@@H](CC(N)=O)C(=O)N[C@@H](CO)C(=O)N[C@@H](Cc1ccc(O)cc1)C(=O)N[C@@H](CCCNC(=N)N)C(N)=O) [[Aib^10]Djeya1, Aib-substituted Djeya1 analogue, position 10]”, the “rank order of uptake efficacy” value with U251 cells is “[Aib^13]Djeya1 > [Aib^16]Djeya1 > [Aib^10]Djeya1”; in the data set on U373MG cells, “[Aib^16]Djeya1 = [Aib^10]Djeya1 > [Aib^13]Djeya1”. Further, the “influence upon planarian head regeneration” value in data set [1] was “inactive”. Moreover, the Unordered in data set [2] (setting [3]) is on record as 20.00 ± 0.00%; in data set [2] (setting [4]), 22.00 ± 1.41%; in data set [2] (setting [5]), 16.00 ± 0.00%; in data set [2] (setting [6]), 20.67 ± 0.58%. For the same substance, the ß-Strand in data set [2] (setting [3]) came out at 21.00 ± 0.02%; in data set [2] (setting [5]) it was 15.00 ± 0.00%; in data set [2] (setting [6]), 31.33 ± 0.58%. For the same substance, the ß-Turns in data set [2] (setting [3]) is given as 7.50 ± 0.71%; in data set [2] (setting [4]), 7.00 ± 1.41%; in data set [2] (setting [5]), 5.00 ± 0.00%; in data set [2] (setting [6]), 7.00 ± 0.00%. The α-helix is 51.50 ± 0.07% in data set [2] (50% (v/v) TFE/PBS pH 7.4, peptide 0.01 mg mL-1, 20 °C, Dichroweb, analyses repeated four times); 45.00 ± 1.58% in data set [2] (setting [4]); 63.00 ± 2.82% in data set [2] (setting [5]); 41.33 ± 1.15% in data set [2] (PBS pH 7.4, peptide 0.01 mg mL-1, 20 °C, Dichroweb CDSSTR/SELCON3, analyses repeated four times).

The values are drawn from PMC10458859, “Stem Cell Bioengineering with Bioportides: Inhibition of Planarian Head Regeneration with Peptide Mimetics of Eyes Absent Proteins” (Pharmaceutics, 2023).
